Data from patent US20250281424A1 (New York Blood Center, Inc, priority 2020, published 2025).

Target: T1, human PF4 (Homo sapiens, UniProt P02776)
T1 construct: PF4 is a 70 amino acid, lysine-rich 7.8 kDa platelet-specific protein; made in house; host or cells: Escherichia coli BL21DE3 pLysS (pT7-7) and/or Drosophila S2 cells
T1 sequence (P02776 32-101): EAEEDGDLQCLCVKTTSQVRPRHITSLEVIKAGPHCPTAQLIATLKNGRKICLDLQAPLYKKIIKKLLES
Assay: Inhibition of PF4 tetramer formation (BS3 cross-linking, SDS-PAGE)
Format: biochemical
Details: for inhibition at 1 µM: 1 μM inhibitor; for inhibition at 3 µM: 3 μM inhibitor (column A); for IC50: read-out: IC50 of PF4 tetramer formation inhibition
How it was run: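 Monomer, dimer, trimer and tetramer fractions were quantified by densitometry after reducing 12% SDS-PAGE of BS3-cross-linked (0.2 mM, 30 min, room temperature) PF4. Before cross-linking, 10 μg/ml E. coli-expressed human WT PF4 in PBS was exposed to compound for 15 min at 37° C or 60 min at room temperature; controls lacked compound.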

[1] = read-out: % inhibition of PF4 tetramer formation at single concentration of inhibitor

| inhibition at 10 µM (10 μM inhibitor (column A), read-out: % inhibition of PF4 tetramer formation at single concentration of inhibitor) [%] | Compound | inhibition at 1 µM [1] [%] | inhibition at 3 µM [1] [%] | IC50 [µM] |
| --- | --- | --- | --- | --- |
|  | CC(C)(C)OC(=O)NCCC(=O)C1C(=O)c2ccc(C(=O)c3ccc4c(c3)C(=O)C(C(=O)CCNC(=O)OC(C)(C)C)C4=O)cc2C1=O (stereo not shown) [Example 268, tert-butyl N-(3-{5-[2-(3-{[(tert-butoxy)carbonyl]amino}propanoyl)-1,3-dioxo-2,3-dihydro-1H-indene-5-carbonyl]-1,3-dioxo-2,3-dihydro-1H-inden-2-yl}-3-oxopropyl)carbamate] | 7 | 25 |  |
|  | CC(=O)NCCCC(=O)C1C(=O)c2ccc(C(=O)c3ccc4c(c3)C(=O)C(C(=O)CCCNC(C)=O)C4=O)cc2C1=O (stereo not shown) [Example 269, N-(4-{5-[2-(4-acetamidobutanoyl)-1,3-dioxo-2,3-dihydro-1H-indene-5-carbonyl]-1,3-dioxo-2,3-dihydro-1H-inden-2-yl}-4-oxobutyl)acetamide] | 14 | 50 |  |
|  | CSCC[C@H](NC(=O)OC(C)(C)C)C(=O)C1C(=O)c2ccc(Oc3ccc4c(c3)C(=O)C(C(=O)[C@H](CCSC)NC(=O)OC(C)(C)C)C4=O)cc2C1=O (stereo partly drawn) [Example 270, tert-butyl N-[(2S)-1-[5-({2-[(2S)-2-{[(tert-butoxy)carbonyl]amino}-4-(methylsulfanyl)butanoyl]-1,3-dioxo-2,3-dihydro-1H-inden-5-yl}oxy)-1,3-dioxo-2,3-dihydro-1H-inden-2-yl]-4-(methylsulfanyl)-1-oxobutan-2-yl]carbamate] | 10 | 24 |  |
|  | CSCC[C@H](NC(=O)OC(C)(C)C)C(=O)C1C(=O)c2ccc(C(=O)c3ccc4c(c3)C(=O)C(C(=O)[C@H](CCSC)NC(=O)OC(C)(C)C)C4=O)cc2C1=O (stereo partly drawn) [Example 271, tert-butyl N-[(2S)-1-(5-{2-[(2S)-2-{[(tert-butoxy)carbonyl]amino}-4-(methylsulfanyl)butanoyl]-1,3-dioxo-2,3-dihydro-1H-indene-5-carbonyl}-1,3-dioxo-2,3-dihydro-1H-inden-2-yl)-4-(methylsulfanyl)-1-oxobutan-2-yl]carbamate] | 21 | 38 |  |
|  | CC(C)(C)OC(=O)NCC(=O)C1C(=O)c2ccc(Oc3ccc4c(c3)C(=O)C(C(=O)CNC(=O)OC(C)(C)C)C4=O)cc2C1=O (stereo not shown) [Example 272, tert-butyl N-[2-(5-{[2-(2-{[(tert-butoxy)carbonyl]amino}acetyl)-1,3-dioxo-2,3-dihydro-1H-inden-5-yl]oxy}-1,3-dioxo-2,3-dihydro-1H-inden-2-yl)-2-oxoethyl]carbamate] | 26 | 56 |  |
|  | CC(C)(C)OC(=O)N1CC[C@H]1C(=O)C1C(=O)c2ccc(Oc3ccc4c(c3)C(=O)C(C(=O)[C@@H]3CCN3C(=O)OC(C)(C)C)C4=O)cc2C1=O (stereo partly drawn) [Example 273, tert-butyl (2S)-2-[5-({2-[(2S)-1-[(tert-butoxy)carbonyl]azetidine-2-carbonyl]-1,3-dioxo-2,3-dihydro-1H-inden-5-yl}oxy)-1,3-dioxo-2,3-dihydro-1H-indene-2-carbonyl]azetidine-1-carboxylate] | 20 | 20 |  |
|  | CC(C)(C)OC(=O)N1CCCC[C@@H]1C(=O)C1C(=O)c2ccc(Oc3ccc4c(c3)C(=O)C(C(=O)[C@H]3CCCCN3C(=O)OC(C)(C)C)C4=O)cc2C1=O (stereo partly drawn) [Example 274, tert-butyl (2R)-2-[5-({2-[(2R)-1-[(tert-butoxy)carbonyl]piperidine-2-carbonyl]-1,3-dioxo-2,3-dihydro-1H-inden-5-yl}oxy)-1,3-dioxo-2,3-dihydro-1H-indene-2-carbonyl]piperidine-1-carboxylate] | 21 | 60 |  |
|  | CC(C)(C)OC(=O)N1CCCC[C@@H]1C(=O)C1C(=O)c2ccc(C(=O)c3ccc4c(c3)C(=O)C(C(=O)[C@H]3CCCCN3C(=O)OC(C)(C)C)C4=O)cc2C1=O (stereo partly drawn) [Example 275, tert-butyl (2R)-2-(5-{2-[(2R)-1-[(tert-butoxy)carbonyl]piperidine-2-carbonyl]-1,3-dioxo-2,3-dihydro-1H-indene-5-carbonyl}-1,3-dioxo-2,3-dihydro-1H-indene-2-carbonyl)piperidine-1-carboxylate] | 5 | 31 | 3 |
|  | CSCCC(=O)C1C(=O)c2ccc(Oc3ccc4c(c3)C(=O)C(C(=O)CCSC)C4=O)cc2C1=O (stereo not shown) [Example 276, 2-[3-(methylsulfanyl)propanoyl]-5-({2-[3-(methylsulfanyl)propanoyl]-1,3-dioxo-2,3-dihydro-1H-inden-5-yl}oxy)-2,3-dihydro-1H-indene-1,3-dione] | 12 | 7 | 3 |
|  | CSCCC(=O)C1C(=O)c2ccc(C(=O)c3ccc4c(c3)C(=O)C(C(=O)CCSC)C4=O)cc2C1=O (stereo not shown) [Example 277, 2-[3-(methylsulfanyl)propanoyl]-5-{2-[3-(methylsulfanyl)propanoyl]-1,3-dioxo-2,3-dihydro-1H-indene-5-carbonyl}-2,3-dihydro-1H-indene-1,3-dione] | 38 | 41 | 3 |
|  | CSCCC(=O)C1C(=O)c2ccc(S(=O)(=O)c3ccc4c(c3)C(=O)C(C(=O)CCSC)C4=O)cc2C1=O (stereo not shown) [Example 278, 2-[3-(methylsulfanyl)propanoyl]-5-({2-[3-(methylsulfanyl)propanoyl]-1,3-dioxo-2,3-dihydro-1H-inden-5-yl}sulfonyl)-2,3-dihydro-1H-indene-1,3-dione] | 1 | 18 | 3 |
|  | CC[C@H](C)[C@H](NC(=O)OC(C)(C)C)C(=O)C1C(=O)c2ccc(S(=O)(=O)c3ccc4c(c3)C(=O)C(C(=O)[C@@H](NC(=O)OC(C)(C)C)[C@@H](C)CC)C4=O)cc2C1=O (stereo partly drawn) [Example 279, tert-butyl N-[(2S,3S)-1-[5-({2-[(2S,3S)-2-{[(tert-butoxy)carbonyl]amino}-3-methylpentanoyl]-1,3-dioxo-2,3-dihydro-1H-inden-5-yl}sulfonyl)-1,3-dioxo-2,3-dihydro-1H-inden-2-yl]-3-methyl-1-oxopentan-2-yl]carbamate] | 33 | 15 | 3 |
|  | CSCC(=O)C1C(=O)c2ccc(Oc3ccc4c(c3)C(=O)C(C(=O)CSC)C4=O)cc2C1=O (stereo not shown) [Example 280, 2-[2-(methylsulfanyl)acetyl]-5-({2-[2-(methylsulfanyl)acetyl]-1,3-dioxo-2,3-dihydro-1H-inden-5-yl}oxy)-2,3-dihydro-1H-indene-1,3-dione] | 23 | 43 | 3 |
| 58 | CSCC(=O)C1C(=O)c2ccc(C(=O)c3ccc4c(c3)C(=O)C(C(=O)CSC)C4=O)cc2C1=O (stereo not shown) [Example 281, 2-[2-(methylsulfanyl)acetyl]-5-{2-[2-(methylsulfanyl)acetyl]-1,3-dioxo-2,3-dihydro-1H-indene-5-carbonyl}-2,3-dihydro-1H-indene-1,3-dione] |  |  | 10 |
|  | CSCC(=O)C1C(=O)c2ccc(S(=O)(=O)c3ccc4c(c3)C(=O)C(C(=O)CSC)C4=O)cc2C1=O (stereo not shown) [Example 282, 2-[2-(methylsulfanyl)acetyl]-5-({2-[2-(methylsulfanyl)acetyl]-1,3-dioxo-2,3-dihydro-1H-inden-5-yl}sulfonyl)-2,3-dihydro-1H-indene-1,3-dione] | 29 | 45 | 3 |
